Our source for the Emax and EC50 values is US20260132126A1, “IMIDAZOLE DERIVATIVES” (SANWA KAGAKU KENKYUSHO CO., LTD., priority 2022, published 2026).

The target in this assay is T1, human α1A adrenergic receptor (Homo sapiens, UniProt P35348).
T1 construct: host or cells: GeneBLAzer ADRA1A-NFAT-bla CHO-K1 cells
T1 sequence (P35348 1-466): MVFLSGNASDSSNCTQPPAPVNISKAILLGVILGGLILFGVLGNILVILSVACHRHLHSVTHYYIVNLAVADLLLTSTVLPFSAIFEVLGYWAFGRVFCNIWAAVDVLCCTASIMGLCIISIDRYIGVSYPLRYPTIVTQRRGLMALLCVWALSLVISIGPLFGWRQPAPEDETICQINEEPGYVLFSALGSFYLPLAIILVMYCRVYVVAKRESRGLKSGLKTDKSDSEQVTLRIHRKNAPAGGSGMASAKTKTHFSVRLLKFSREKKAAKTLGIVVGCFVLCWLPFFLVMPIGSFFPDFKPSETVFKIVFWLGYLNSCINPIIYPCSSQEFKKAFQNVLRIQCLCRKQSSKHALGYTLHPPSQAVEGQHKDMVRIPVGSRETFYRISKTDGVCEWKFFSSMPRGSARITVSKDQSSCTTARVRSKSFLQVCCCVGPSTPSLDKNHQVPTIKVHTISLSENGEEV
Put plainly: Ca2+ mobilization assay in human α1A adrenergic receptor-expressing cells. Type of assay: cell-based. Further details: Emax: dose or concentration left out as unconfirmed. The conditions noted are these: for EC50: CHO-K1 cells expressing human α1A adrenergic receptor, Fluo-4 fluorescence, concentration giving 50% response of Emax, 4-parameter logistic regression; for Emax at 10 µM: % activation at 10 μmol/L test compound, 100 μmol/L norepinephrine = 100%, well without test compound = 0%. How it is done: CHO-K1 cells that highly express a human α1A adrenergic receptor (GeneBLAzer™ ADRA1A-NFAT-bla CHO-K1 Cells) were purchased from Thermo Fisher Scientific, Inc., and cultured according to the instructions.
The cultured human α1A adrenergic receptor-expressing cells were washed with D-PBS, then replaced with a loading buffer (2 μmol/L Fluo-4/AM, 1× PowerLoad, 2.5 mmol/L Probenecid-containing DMEM (high-glucose)) and incubated at 37° C. for 60 minutes in a 5% CO2 incubator. The cells were detached using 0.05% trypsin-EDTA solution, and suspended in an assay buffer ([…], 0.054 mol/L KCl, 1.8 mmol/L CaCl2), 1 mmol/L MgSO4, 0.11 mol/L glucose, 0.01 mol/L NaH2PO4·2H2O, […], pH 7.3) to be 500,000 cells/mL.
Test compounds were dissolved in dimethylsulfoxide, and diluted with an assay buffer containing 0.3% BSA. The final concentrations of the test compounds were set to fall within the range of 0.1 nmol/L to 10 μmol/L. As a reference compound, norepinephrine was set to have a final concentration within the range of 0.01 nmol/L to 100 μmol/L.
On a 384-well clear bottom black plate coated with poly-D-lysine (Corning Inc.), the above-described cell-suspended solution was dispersed in 40 μL each (20,000 cells/well) and allowed to stand for 10 minutes. The plate was transferred to a fluorescent imaging plate reader (FDSS7000, Hamamatsu Photonics K.K.), and measurements were started. After 1 minute from the start of the measurements, 20 μL of the test compound solutions or norepinephrine solution (total amount: 60 μL/well) was added to each well of the plate (final concentration: 0.1% BSA, 0.1% dimethylsulfoxide), and the temporal change in fluorescence intensity of Fluo-4 was further measured for 5 minutes (Ex 480 nm/Em 540 nm).
The normalized values (% activation) were used for subsequent analyses.
Emax values and EC50 values were calculated by creating a concentration-response curve of the test compounds using a 4-parameter logistic regression with XLFit, Emax value being defined as % activation of test compound at the concentration of 10 μmol/L, and EC50 value being defined as the concentration in which 50% response of the Emax values is shown.
(In general: Calcium assays in cells follow changes in intracellular calcium, usually with a dye or a luminescent sensor.)

On to `Cc1ncncc1-c1ccccc1OCc1c[nH]cn1` [Example 76], for which the maximum response (Emax) was determined as 98% and the midpoint of the response, the EC50, lay at 3.3 nM.
For `COc1cncc(-c2ccccc2OCc2c[nH]cn2)n1` [Example 77] the same measures were 92% and 0.6 nM.
`CC(Oc1ccccc1-c1cccs1)c1c[nH]cn1` (centres unmarked) [Example 78, 4-(1-(2-(Thiophen-2-yl)phenoxy)ethyl)-1H-imidazole] registered an Emax at 10 µM of 99% and an EC50 of 6.4 nM.
As for `c1cncc(-c2ccccc2SCc2c[nH]cn2)c1` [Example 80, 3-(2-(((1H-Imidazol-4-yl)methyl)thio)phenyl)pyridine], the Emax at 10 µM turned out to be 101% and the concentration for a half-maximal effect (EC50) came out at 3.4 nM.
Regarding `c1ccc(-c2cn[nH]c2)c(SCc2c[nH]cn2)c1` [Example 81], the Emax at 10 µM worked out at 106% and it took 9 nM to reach a half-maximal effect (EC50).
In the case of `c1ccc(-c2ccsc2)c(SCc2c[nH]cn2)c1` [Example 82], the Emax at 10 µM was 104% and a half-maximal effect (EC50) was put at 6.9 nM.
In the case of `c1ccc(-c2cnco2)c(NCc2c[nH]cn2)c1` [compound 1, N-((1H-imidazol-4-yl)methyl)-2-(oxazol-5-yl) aniline, reference compound], the maximal effect (Emax) at 10 µM came out at 91% and the 50% effective concentration (EC50) was 20 nM.

A word on the Emax: it is the size of the effect at its maximum, as opposed to the concentration needed. In general, EC50 refers to the concentration needed to bring the measured effect to its halfway point.
